Laboratory results from patent publication US10294202B2, “Pyrrolidinones as herbicides” (FMC Corporation, priority 2013, dated 2019).

Tests used:
Test in all cases: Test D pre-/postemergence herbicide test
deadnettle = format: in vivo, Lamium amplexicaule; details: Preemergence; for Plant response rating, Deadnettle: scale 0 to 100 (0 no effect, 100 complete control)
Source text: (§1) Seeds of plant species selected from bluegrass (annual bluegrass, Poa annua), blackgrass (Alopecurus myosuroides), canarygrass (littleseed canarygrass, Phalaris minor), chickweed (common chickweed, Stellaria media), galium (catchweed bedstraw, Galium aparine), bromegrass, downy (downy bromegrass, Bromus tectorum), field poppy (Papaver rhoeas), field violet (Viola arvensis), foxtail, green (green foxtail, Setaria viridis), deadnettle (henbit deadnettle, Lamium amplexicaule), ryegrass, Italian (Italian ryegrass, Lolium multiflorum), kochia (Kochia scoparia), lambsquarters (Chenopodium album), oilseed rape (Brassica napus), pigweed (Amaranthus retroflexus), chamomile (scentless chamomile, Matricaria inodora), Russian thistle (Salsola kali), speedwell (bird's-eye speedwell, Veronica persica), barley, spring (spring barley, Hordeum vulgare), wheat, spring (spring wheat, Triticum aestivum), buckwheat, wild (wild buckwheat, Polygonum convolvulus), mustard, wild (wild mustard, Sinapis arvensis), oat, wild (wild oat, Avena fatua), radish, wild (wild radish, Raphanus raphanistrum), […]), barley, winter (winter barley, Hordeum vulgare), and wheat, winter (winter wheat, Triticum aestivum) were planted into a silt loam soil and treated preemergence with test chemicals formulated in a non-phytotoxic solvent mixture which included a surfactant. At the same time, these species were planted in pots containing Redi-Earth® planting medium (Scotts Company, 14111 Scottslawn Road, Marysville, Ohio 43041) comprising spaghnum peat moss, vermiculite, wetting agent and starter nutrients and treated with postemergence applications of the test chemicals formulated in the same manner. Plants ranged in height from 2 to 18 cm (1- to 4-leaf stage). Treated plants and controls were maintained in a controlled growth environment for 7 to 21 days after which time all species were compared to controls and visually evaluated. Plant response ratings, summarized in Table D, are based on a scale of 0 to 100 where 0 is no effect and 100 is complete control. A dash (-) response means no test result.

foxtail, green = format: in vivo, Setaria viridis; details: Preemergence; for Plant response rating, Foxtail, Green: scale 0 to 100 (0 no effect, 100 complete control)
Source text: as §1

field poppy = format: in vivo, Papaver rhoeas; details: Preemergence; for Plant response rating, Field Poppy: scale 0 to 100 (0 no effect, 100 complete control)
Source text: as §1

windgrass = format: in vivo, Apera spica-venti; details: Preemergence, scale 0 to 100 (0 no effect, 100 complete control)
Source text: as §1

O=C1NCC(c2cccc(C(F)(F)F)c2)C1C(=O)Nc1cccc(F)c1F (stereo not shown) [Compound 241]
Plant response rating, Deadnettle (deadnettle; 31 g ai/ha): 35
Plant response rating, Deadnettle (deadnettle; 62 g ai/ha): 30
Plant response rating, Deadnettle (deadnettle; 125 g ai/ha): 35
Plant response rating (deadnettle; 250 g ai/ha, Deadnettle, scale 0 to 100): 45
Plant response rating, Foxtail, Green (foxtail, green; 31 g ai/ha): 35
Plant response rating, Foxtail, Green (foxtail, green; 62 g ai/ha): 90
Plant response rating, Foxtail, Green (foxtail, green; 125 g ai/ha): 90
Plant response rating (foxtail, green; 250 g ai/ha, Foxtail, Green, scale 0 to 100): 90
Plant response rating, Field Poppy (field poppy; 31 g ai/ha): 90
Plant response rating, Field Poppy (field poppy; 62 g ai/ha): 95
Plant response rating, Field Poppy (field poppy; 125 g ai/ha): 95
Plant response rating (field poppy; 250 g ai/ha, Field Poppy, scale 0 to 100): 100
Plant response rating, Windgrass (windgrass; 31 g ai/ha): 65
Plant response rating, Windgrass (windgrass; 62 g ai/ha): 90
Plant response rating, Windgrass (windgrass; 125 g ai/ha): 95
Plant response rating, Windgrass (windgrass; 250 g ai/ha): 98
